According to PubChem BioAssay AID248 (DTP/NCI, 2004):
Values joined by “and” are separate entries in the source; they are usually repeats but may differ in a detail not shown here. Equal values may be shown once. Inconclusive results and toxic doses are left out. Rule as the data show it: active = T/C of 150% or more; inactive = T/C below 125%.

Test system: L1210 leukemia ip in BDF1 mice, survival T/C
Experiment: NCI In Vivo Anticancer Drug Screen. Data for tumor model L1210 Leukemia (intraperitoneal) in B6D2F1 (BDF1) mice
Conditions: endpoint: mean survival time, higher = longer survival
Method in brief: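 Transplantable tumor model; survival measured in treated vs vehicle control mice. Value = treated/control.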

[1] = dose: 100.0 mg/kg/injection, schedule: Q04DX002 (ip), vehicle: Klucel (hydroxypropylcellulose) (HPC)
[2] = dose: 100.0 mg/kg/injection, schedule: Q04DX003 (ip), vehicle: saline with Tween-80
[3] = dose: 100.0 mg/kg/injection, schedule: Q01DX001 (ip), vehicle: carboxymethylcellulose (CMC)
[4] = dose: 200.0 mg/kg/injection, schedule: Q01DX001 (ip), vehicle: carboxymethylcellulose (CMC)
[5] = dose: 400.0 mg/kg/injection, schedule: Q01DX001 (ip), vehicle: carboxymethylcellulose (CMC)
[6] = dose: 200.0 mg/kg/injection, schedule: Q04DX003 (ip), vehicle: saline with Tween-80
[7] = dose: 400.0 mg/kg/injection, schedule: Q04DX003 (ip), vehicle: saline with Tween-80
[8] = dose: 3.12 mg/kg/injection, schedule: Q01DX009 (ip), vehicle: saline
[9] = dose: 6.25 mg/kg/injection, schedule: Q01DX009 (ip), vehicle: saline
[10] = dose: 12.5 mg/kg/injection, schedule: Q01DX009 (ip), vehicle: saline
[11] = dose: 200.0 mg/kg/injection, schedule: Q04DX002 (ip), vehicle: Klucel (hydroxypropylcellulose) (HPC)
[12] = dose: 400.0 mg/kg/injection, schedule: Q04DX002 (ip), vehicle: Klucel (hydroxypropylcellulose) (HPC)
[13] = dose: 100.0 mg/kg/injection, schedule: Q01DX009 (ip), vehicle: Klucel (hydroxypropylcellulose) (HPC)
[14] = dose: 200.0 mg/kg/injection, schedule: Q01DX009 (ip), vehicle: Klucel (hydroxypropylcellulose) (HPC)
[15] = dose: 400.0 mg/kg/injection, schedule: Q01DX009 (ip), vehicle: Klucel (hydroxypropylcellulose) (HPC)
[16] = dose: 100.0 mg/kg/injection, schedule: Q04DX003 (ip), vehicle: Klucel (hydroxypropylcellulose) (HPC)
[17] = dose: 200.0 mg/kg/injection, schedule: Q04DX003 (ip), vehicle: Klucel (hydroxypropylcellulose) (HPC)
[18] = dose: 400.0 mg/kg/injection, schedule: Q04DX003 (ip), vehicle: Klucel (hydroxypropylcellulose) (HPC)
[19] = dose: 100.0 mg/kg/injection, schedule: Q01DX001 (ip), vehicle: saline
[20] = dose: 200.0 mg/kg/injection, schedule: Q01DX001 (ip), vehicle: saline
[21] = dose: 400.0 mg/kg/injection, schedule: Q01DX001 (ip), vehicle: saline
[22] = dose: 100.0 mg/kg/injection, schedule: Q04DX002 (ip), vehicle: saline
[23] = dose: 200.0 mg/kg/injection, schedule: Q04DX002 (ip), vehicle: saline
[24] = dose: 400.0 mg/kg/injection, schedule: Q04DX002 (ip), vehicle: saline

Measured: T/C

NC(CC(=O)NCCc1ccccc1)C(=O)NCCc1ccccc1 (centres undefined)
inactive: dose: 75.0 mg/kg/injection, schedule: Q01DX001 (ip), vehicle: other 102 % of control | dose: 150.0 mg/kg/injection, schedule: Q01DX001 (ip), vehicle: other 97 % of control | dose: 300.0 mg/kg/injection, schedule: Q01DX001 (ip), vehicle: other 97 % of control

CCCCCC(C[N+](C)(C)C)C(=O)/C=C/c1ccc(Cl)c(Cl)c1 (centres undefined)
inactive: dose: 25.0 mg/kg/injection, schedule: Q04DX002 (ip), vehicle: Klucel (hydroxypropylcellulose) (HPC) 91 % of control | dose: 50.0 mg/kg/injection, schedule: Q04DX002 (ip), vehicle: Klucel (hydroxypropylcellulose) (HPC) 98 % of control | [1] 95 % of control

CCN(CC)CCNC1CCCCC1
inactive: [2] 94 % of control

Cc1cccc(C)c1N(COC(C)C)C(=O)CCl
inactive: dose: 100.0 mg/kg/injection, schedule: Q01DX009 (ip), vehicle: saline with Tween-80 94 % of control | dose: 200.0 mg/kg/injection, schedule: Q01DX009 (ip), vehicle: saline with Tween-80 95 % of control

Cc1ccnc(NS(=O)(=O)c2ccc(N=Nc3c(N)nc(N)[nH]c3=O)cc2)n1
inactive: [3] 103 % of control | [4] 97 % of control | [5] 103 % of control

CCCCCCCCCCCC1CCCC2CCCCC12 (centres undefined)
inactive: dose: 100.0 mg/kg/injection, schedule: Q04DX002 (ip), vehicle: saline with Tween-80 91 % of control | dose: 200.0 mg/kg/injection, schedule: Q04DX002 (ip), vehicle: saline with Tween-80 91 % of control | dose: 400.0 mg/kg/injection, schedule: Q04DX002 (ip), vehicle: saline with Tween-80 100 % of control

NC(=S)N/N=C/C=N/NC(N)=S
inactive: dose: 50.0 mg/kg/injection, schedule: Q01DX001 (ip), vehicle: carboxymethylcellulose (CMC) 97 % of control | [3] 91 % of control | [4] 95 % of control | [5] 101 % of control | dose: 1.0 micrograms/kg/injection, schedule: Q01DX009 (ip), vehicle: carboxymethylcellulose (CMC) 107 % of control | dose: 5.0 micrograms/kg/injection, schedule: Q01DX009 (ip), vehicle: carboxymethylcellulose (CMC) 98 % of control

COc1ccc2c(c1)C(CO)c1ccc(Cl)cc1N2 (centres undefined)
inactive: [2] 93 % of control | [6] 96 % of control | [7] 94 % of control

c1ccc(CCN2CCCC2)nc1
inactive: dose: 12.5 mg/kg/injection, schedule: Q04DX002 (ip), vehicle: saline with Tween-80 103 % of control | dose: 25.0 mg/kg/injection, schedule: Q04DX002 (ip), vehicle: saline with Tween-80 98 % of control

C[CH2][Sn]([CH2]C)([O]S(C)(=O)=O)[O]S(C)(=O)=O
inactive: dose: 0.78 mg/kg/injection, schedule: Q01DX009 (ip), vehicle: saline 95 % of control | dose: 1.56 mg/kg/injection, schedule: Q01DX009 (ip), vehicle: saline 98 % of control | [8] 106 % of control | [9] 116 % of control | [10] 102 % of control

Cc1ccc(S/C=C/Sc2ccc(C)cc2)cc1
inactive: [1] 99 % of control | [11] 99 % of control | [12] 99 % of control

CC(OC(C)c1ccccc1)c1ccccc1 (centres undefined)
inactive: [13] 96 % of control | [14] 105 % of control | [15] 101 % of control

Clc1ccc2nsnc2c1Cl
inactive: [16] 95 % of control | [17] 98 % of control | [18] 98 % of control

CC1=CP(=O)(c2ccccc2)CC1 (centres undefined)
inactive: [19] 102 % of control | [20] 102 % of control | [21] 105 % of control

S=C(Nc1ccc(Cl)c(Cl)c1)SCc1ccc(Cl)c(Cl)c1
inactive: dose: 15.0 mg/kg/injection, schedule: Q04DX003 (ip), vehicle: saline 97 % of control | dose: 30.0 mg/kg/injection, schedule: Q04DX003 (ip), vehicle: saline 101 % of control | dose: 60.0 mg/kg/injection, schedule: Q04DX003 (ip), vehicle: saline 101 % of control | [22] 88 % of control | [23] 112 % of control | [24] 88 % of control

CNCCCN1c2ccccc2CCc2ccccc21
inactive: [8] 123 % of control | dose: 5.0 mg/kg/injection, schedule: Q01DX001 (ip), vehicle: saline 105 % of control | [9] 115 % of control | dose: 10.0 mg/kg/injection, schedule: Q01DX001 (ip), vehicle: saline 100 % of control | [10] 115 % of control | dose: 20.0 mg/kg/injection, schedule: Q01DX001 (ip), vehicle: saline 111 % of control | dose: 25.0 mg/kg/injection, schedule: Q01DX009 (ip), vehicle: saline 110 % of control | dose: 25.0 mg/kg/injection, schedule: Q04DX003 (ip), vehicle: saline 101 % of control | dose: 40.0 mg/kg/injection, schedule: Q01DX001 (ip), vehicle: saline 95 % of control | dose: 50.0 mg/kg/injection, schedule: Q01DX009 (ip), vehicle: saline 106 % of control | dose: 50.0 mg/kg/injection, schedule: Q04DX003 (ip), vehicle: saline 97 % of control | dose: 80.0 mg/kg/injection, schedule: Q01DX001 (ip), vehicle: saline 92 % of control

COc1ccc(Cl)cc1NC(=O)Nc1cc(C)ccn1
inactive: [13] 104 % of control | [14] 100 % of control | [15] 88 % of control

O=C1C=CC2=Nc3ccccc3CCC2=C1
inactive: dose: 75.0 mg/kg/injection, schedule: Q01DX001 (ip), vehicle: steriod suspending solution 93 % of control | dose: 150.0 mg/kg/injection, schedule: Q01DX001 (ip), vehicle: steriod suspending solution 93 % of control | dose: 300.0 mg/kg/injection, schedule: Q01DX001 (ip), vehicle: steriod suspending solution 92 % of control

NC1C2C3C=CC(C3)C12 (centres undefined)
inactive: dose: 100.0 mg/kg/injection, schedule: Q01DX009 (ip), vehicle: saline 107 % of control | dose: 200.0 mg/kg/injection, schedule: Q01DX009 (ip), vehicle: saline 100 % of control

CSc1ncnc2c1ncn2CC(=O)[C@@]1(O)CC[C@H]2[C@@H]3CCC4=CC(=O)CC[C@]4(C)[C@H]3[C@@H](O)C[C@@]21C
inactive: dose: 100.0 mg/kg/injection, schedule: Q01DX001 (sc), vehicle: steriod suspending solution 99 % of control | dose: 200.0 mg/kg/injection, schedule: Q01DX001 (sc), vehicle: steriod suspending solution 100 % of control | dose: 400.0 mg/kg/injection, schedule: Q01DX001 (sc), vehicle: steriod suspending solution 100 % of control

C=CCc1ccc(OC(C)=O)c(OC)c1
inactive: [19] 96 % of control | [20] 98 % of control | [21] 108 % of control

Cn1c2nc3ccccc3c-2nc2ccccc21
inactive: [2] 91 % of control | [6] 94 % of control | [7] 86 % of control

CC(C)[CH2][Sn]([CH2]C(C)C)([CH2]C(C)C)[C](C)(C)C
inactive: [22] 94 % of control | [23] 90 % of control | [24] 100 % of control

[N-]=[N+]=Nc1nc2c(N)ncnc2n1C1OC(CO)C(O)C1O (centres undefined)
inactive: dose: 25.0 mg/kg/injection, schedule: Q01DX001 (ip), vehicle: saline 102 % of control | dose: 50.0 mg/kg/injection, schedule: Q01DX001 (ip), vehicle: saline 105 % of control | [19] 103 % of control

CCOC(=O)c1nc[nH]c1C
inactive: [13] 103 % of control | [1] 98 % of control and 101 % of control | [16] 103 % of control | [14] 100 % of control and 120 % of control | [11] 100 % of control and 103 % of control | [17] 103 % of control | [15] 103 % of control and 119 % of control | [12] 103 % of control | [18] 98 % of control

NC1=NCCS1
inactive: dose: 25.0 mg/kg/injection, schedule: Q04DX002 (ip), vehicle: saline 103 % of control | dose: 50.0 mg/kg/injection, schedule: Q04DX002 (ip), vehicle: saline 110 % of control | [22] 95 % of control and 103 % of control

CCN(C(=S)Nc1cccc2ccccc12)c1ccccc1
inactive: [13] 100 % of control | [14] 96 % of control | [15] 92 % of control
